Reference: article PMC11462456 (Chemical Science, 2024)

Legend:
[1] = system: BRD2, BRD3, and BRD4 proteins; test: Western blot BET protein degradation in HEK293 cells (screen, washout kinetics, proteasome rescue); assay type: cell-based, human; conditions: 4 h, 0.1 μM and 1 μM
Excerpt: 4. Biological experiments
Primary antibodies used for western blotting included anti-human BRD2(1:2000, rabbit monoclonal, Abcam, ab139690), anti-human BRD3 (1:1000, rabbit monoclonal, Abcam, ab264420), anti-human BRD4 (E2A7X) (1:1000, rabbit monoclonal, Cell Signaling Technology, #13440), anti-human VHL (1:1000, rabbit polyclonal, Cell Signaling Technology, #68547), anti-human CRBN (D8H3S) (1:1000, rabbit polyclonal, Cell Signaling Technology, #71810), anti-human alpha Tubulin, clone B-5-1-2 (1:5000, mouse monoclonal, Merck Life Science, # 32-2500).Secondary antibodies used for western blot included: anti-mouse horseradish peroxidase-linked antibody (1:3000, sheep, GE Healthcare Life Sciences, #NA931V), and anti-rabbit horseradish peroxidase-linked antibody (1:8000, donkey, GE Healthcare Life Sciences, #NA934V). Reagent for degradation assay and compounds […]
dr. Serge Van Calenbergh, Ghent University).
4.2 Cell lines and culture […]
General method of Western blot: Lysates were sonicated and centrifuged at 4 °C at 20000 g for 15 min, and the supernatants were transferred to new tubes. Protein concentration of cell lysates was measured using the DC Protein Assay kit (BIO-RAD) following manufacturer's instructions. […]
Figure S1 Dual-ligand PROTACs induce target protein degradation in A549 cells. […] Subsequently, cells were lysed and BRD2, BRD3 and BRD4 protein levels were measured by Western blot. […]

[2] = system: HEK293, A549, HCT116 and SKOV-3; test: CellTiter-Glo metabolic activity, cell line panel; assay type: cell-based; conditions: 48 h
Protocol: 4.4 Cell viability assay on 2D cells cultures
HEK293, HCT116, A549,andSKOV-3 cells were seeded in 96-well tissue culture plates at a density of 2000-3000 cells per well in 100 µl of growth medium and incubated overnight at 37 °C with 5% CO2. The following day, the cells were treated with various concentrations of compounds or 0.05% DMSO for 48 h. After treatment, add 100 μl of Cell Titer-Glo® 2.0 Reagent (cat. no. G9243, Promega) in each well, then the 96-well plates were put on an orbital shaker for 10 min and then allow the plate to incubate at room temperature for 10-20min to stabilize the luminescent signal. Luminescence readout (Gen5 Data Analysis Software v3.08.01) was performed to record luminescence.
(1 picture or pasted object on this page, not shown here)

[3] = Mouse serum stability by HPLC-MS/MS; assay type: in vitro ADME; conditions: after 2 hours of incubation, 37°C
Protocol: Figure S7. Dual-ligand PROTACs inhibit cancer cell growth in 2D and 3D in vitro cell cultures.
(A) 2D-cultured SKOV-3 were treated with an escalating dose of PROTACs for 48h. Cell viability was assessed by CellTiter-Glo 2D assay. EC50 values were calculated from fitted curves. (B) HCT116 spheroids were treated with an escalating dose of PROTACs for 72h (equivalent volume of DMSO as control group). Representative transmitted microscopy images at the dose of 10nM. (C) Cell viability was assessed by Cell Titer-Glo 3D assay. Both experiments were performed as three independent replicates. (D) 2D-cultured A549 cells were treated with an escalating dose of PROTACs equipped with similar linker length as dual-ligand PROTACs. Cell viability was assessed by CellTiter-Glo 2D assay.
EC50 values were calculated from fitted curves.
Eurofins Panlabs, 6 Research Park Dr. St. Charles, MO 63304, U.S.A. Compounds were incubated in the mouse serum at 37°C for certain time, and at 0, 0.5, 1, 1.5, 2 hours post incubation, the mouse serum was analyzed by HPLC-MS/MS according to the reference: Di, L. et al. (2005), Int. J. Pharm., 297 (1-2): 110-119. […] Samples were analyzed by HPLC-MS/MS and peak areas were recorded for each analyte. The area of precursor compound remaining after each of the time points relative to the amount remaining at time zero, expressed as percent, is calculated. […]

| Structure (SMILES) | degradation efficiency versus single- and trivalent PROTACs [1] | metabolic inhibition, comparison [2] | compound remained intact in mouse serum [3] [%] |
| --- | --- | --- | --- |
| Cc1sc2c(c1C)C(c1ccc(Cl)cc1)=N[C@@H](CC(=O)NCCOCCOCCNC(=O)C[C@H](NC(=O)COCCOCCOCCOCCn1cc(CCC(=O)N[C@@H](CC(=O)NCCOCCOCCNc3cccc4c3C(=O)N(C3CCC(=O)NC3=O)C4=O)C(=O)NCCOCCOCCNc3cccc4c3C(=O)N(C3CCC(=O)NC3=O)C4=O)nn1)C(=O)NCCOCCOCCNC(=O)C[C@@H]1N=C(c3ccc(Cl)cc3)c3c(sc(C)c3C)-n3c(C)nnc31)c1nnc(C)n1-2 (some centres unmarked) [2J2P] | superior degradation efficiency |  |  |
| Cc1ncsc1-c1ccc(C(C)NC(=O)C2CC(O)CN2C(=O)C(NC(=O)COCCOCCNC(=O)CC(NC(=O)CCc2cn(CCOCCOCCOCCOCC(=O)NC(CC(=O)NCCOCCOCCNC(=O)CC3N=C(c4ccc(Cl)cc4)c4c(sc(C)c4C)-n4c(C)nnc43)C(=O)NCCOCCOCCNC(=O)CC3N=C(c4ccc(Cl)cc4)c4c(sc(C)c4C)-n4c(C)nnc43)nn2)C(=O)NCCOCCOCC(=O)NC(C(=O)N2CC(O)CC2C(=O)NC(C)c2ccc(-c3scnc3C)cc2)C(C)(C)C)C(C)(C)C)cc1 (centres unmarked) [2J2V] | superior degradation efficiency | greater metabolic response compared to the CRBN ligase-based dual-ligand PROTACs 2J2P | 88 |
| Cc1ncsc1-c1ccc(CNC(=O)C2CC(O)CN2C(=O)C(NC(=O)COCCOCCOCCNC(=O)CC2N=C(c3ccc(Cl)cc3)c3c(sc(C)c3C)-n3c(C)nnc32)C(C)(C)C)cc1 (centres unmarked) [MZ1, reference compound] |  |  | 95 |
